{"source": "paper PMC2712759", "about": "“Hsp70 Chaperones and Type I PRMTs Are Sequestered at Intranuclear Inclusions Caused by Polyalanine Expansions in PABPN1” (PLoS ONE, 2009)", "key": {"PABPN1 [1]": {"molecular_target": "T1, PABPN1 (Homo sapiens, UniProt Q86U42, INS11AAAAAAA)", "T1 construct": "recombinant full-length (306 aa for normal PABPN1, 10-Ala tract, N-terminus M-(A)10-GAAGGRG); details in supplement S1", "T1 sequence (Q86U42 with tags, fused parts or gaps INS11AAAAAAA)": "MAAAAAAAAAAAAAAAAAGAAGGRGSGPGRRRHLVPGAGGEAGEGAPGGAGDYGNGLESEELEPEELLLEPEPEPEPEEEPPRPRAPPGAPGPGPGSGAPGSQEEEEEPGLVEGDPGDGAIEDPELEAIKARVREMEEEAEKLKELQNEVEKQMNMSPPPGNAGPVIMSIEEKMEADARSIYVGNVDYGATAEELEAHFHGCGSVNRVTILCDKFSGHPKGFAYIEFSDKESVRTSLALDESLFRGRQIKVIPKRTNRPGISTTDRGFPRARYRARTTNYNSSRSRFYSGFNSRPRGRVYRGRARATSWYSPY", "assay": "ANS fluorescence titration", "type": "binding"}, "PABPN1 [2]": {"molecular_target": "T2, PABPN1 (Homo sapiens, UniProt Q86U42)", "T2 construct": "recombinant full-length (306 aa for normal PABPN1, 10-Ala tract, N-terminus M-(A)10-GAAGGRG); details in supplement S1", "T2 sequence (Q86U42 1-306)": "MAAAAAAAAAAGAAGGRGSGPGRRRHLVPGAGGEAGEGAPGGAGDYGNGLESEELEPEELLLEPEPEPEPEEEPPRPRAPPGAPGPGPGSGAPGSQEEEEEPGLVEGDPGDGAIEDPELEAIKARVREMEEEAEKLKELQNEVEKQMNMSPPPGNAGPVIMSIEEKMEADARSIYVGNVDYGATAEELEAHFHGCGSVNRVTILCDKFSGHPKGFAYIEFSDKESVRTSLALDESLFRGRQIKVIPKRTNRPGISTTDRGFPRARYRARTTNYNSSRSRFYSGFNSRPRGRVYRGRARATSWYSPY", "assay": "ANS fluorescence titration", "type": "binding"}}, "data": [{"compound": "O=S(=O)(O)c1cccc2cccc(Nc3ccccc3)c12", "note": "[1-Anilino naphthalene-8-sulfonic acid]", "values": [{"measurement": "Kd", "setting": "PABPN1 [1]", "result": 42, "unit": "µM"}, {"measurement": "Kd", "setting": "PABPN1 [2]", "result": 75, "unit": "µM"}]}]}
